Source: US8178548B2, “Anti-infective agents and uses thereof” (priority 2007, dated 2012)
Read-outs that look alike come from different tables or passages of the source.

Columns and labels:
[1] = biological target: T1, HCV polymerase 1A (Δ21 NS5B, H77) (Hepatitis C virus genotype 1a, UniProt P27958); assay: biochemical
T1 construct: 20 to 50 nM Δ21 NS5B
Protocol: (§1) Either two-fold serial dilutions (fractional inhibition assay) or a narrower range of dilutions spanning the IC50 of the inhibitor (tight binding assay) of the inhibitors were incubated with 20 mM Tris-Cl pH 7.4, 2 mM MnCl2, 1 mM dithiothreitol, 1 mM ethylene diamine tetraacetic acid (EDTA), 60 to 125 μM GTP and 20 to 50 nM Δ21 NS5B (HCV Strain 1B (BK, Genbank accession number M58335, or H77, Genbank accession number AF011751)) for 15 min at room temperature. The reaction was initiated by the addition of 20 μM CTP, 20 μM ATP, 1 μM ^3H-UTP (10 mCi/umol), 5 nM template RNA and 0.1 U/μl RNase inhibitor (RNasin, Promega), and allowed to proceed for 2 to 4 h at room temperature. Reaction volume was 50 μl. The reaction was terminated by the addition of 1 volume of 4 mM spermine in 10 mM Tris-Cl pH 8.0, 1 mM EDTA. After incubation for at least 15 min at room temperature, the precipitated RNA was captured by filtering through a GF/B filter (Millipore) in a 96 well format. The filter plate was washed three times with 200 μl each of 2 mM spermine, 10 mM Tris-Cl pH 8.0, 1 mM EDTA, and 2 times with ethanol. After air-drying, 30 μl of Microscint 20 scintillation cocktail (Packard) was added to each well, and the retained cpm were determined by scintillation counting. […] Retained cpm were plotted vs. inhibitor concentration and fit to equation 1 using non-linear regression (ref. 1) to obtain the IC50 values: Retained cpm=A[sqrt{(IC50+It−Et)^2+4*IC50*Et}−(IC50+It−Et)]
(§2) Ref. Morrison, J. F. and S. R. Stone. 1985. Approaches to the study and analysis of the inhibition of enzymes by slow- and tight-binding inhibitors. Comments Mol. Cell. Biophys. 2: 347-368.
(§3) The sequence of the template RNA used was: 5′-[…] […] […] […] […] […] […] […] […] […] […] […] […] […] […] […] […]-3′ (SEQ ID NO:1).

[2] = biological target: T2, HCV polymerase 1B (Δ21 NS5B, HCV Strain 1B BK) (Hepatitis C virus genotype 1b, UniProt P26663); assay: biochemical
T2 construct: 20 to 50 nM Δ21 NS5B
T2 sequence (P26663 2420-2989, stated change not applied): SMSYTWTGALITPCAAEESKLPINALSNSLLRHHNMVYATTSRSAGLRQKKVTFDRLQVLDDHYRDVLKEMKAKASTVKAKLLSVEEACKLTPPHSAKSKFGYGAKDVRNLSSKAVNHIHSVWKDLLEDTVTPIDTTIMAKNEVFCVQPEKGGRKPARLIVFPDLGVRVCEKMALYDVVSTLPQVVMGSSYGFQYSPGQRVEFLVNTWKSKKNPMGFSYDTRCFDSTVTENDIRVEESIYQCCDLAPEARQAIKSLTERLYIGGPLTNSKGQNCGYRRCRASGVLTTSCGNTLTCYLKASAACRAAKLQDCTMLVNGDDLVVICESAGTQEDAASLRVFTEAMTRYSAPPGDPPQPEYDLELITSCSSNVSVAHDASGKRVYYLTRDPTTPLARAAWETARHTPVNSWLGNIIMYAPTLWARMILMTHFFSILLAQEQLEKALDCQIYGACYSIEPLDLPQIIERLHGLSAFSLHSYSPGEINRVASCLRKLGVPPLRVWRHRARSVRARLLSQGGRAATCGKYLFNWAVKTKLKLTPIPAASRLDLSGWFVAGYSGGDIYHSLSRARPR
Protocol: as §1, §2, §3

[3] = tested on: genotype 1a-H77 subgenomic replicon cell line; assay: HCV Polymerase Replicon Assay, genotype 1a-H77 (luciferase reporter); type: cell-based; conditions: Hepatitis C virus, 72 h, read-out: EC50 1a
[4] = tested on: genotype 1b-Con1 subgenomic replicon cell line; assay: HCV Polymerase Replicon Assay, genotype 1b-Con1 (luciferase reporter); type: cell-based; conditions: Hepatitis C virus, 72 h, read-out: EC50 1b

T1 sequence (P27958 2421-2990, stated change not applied): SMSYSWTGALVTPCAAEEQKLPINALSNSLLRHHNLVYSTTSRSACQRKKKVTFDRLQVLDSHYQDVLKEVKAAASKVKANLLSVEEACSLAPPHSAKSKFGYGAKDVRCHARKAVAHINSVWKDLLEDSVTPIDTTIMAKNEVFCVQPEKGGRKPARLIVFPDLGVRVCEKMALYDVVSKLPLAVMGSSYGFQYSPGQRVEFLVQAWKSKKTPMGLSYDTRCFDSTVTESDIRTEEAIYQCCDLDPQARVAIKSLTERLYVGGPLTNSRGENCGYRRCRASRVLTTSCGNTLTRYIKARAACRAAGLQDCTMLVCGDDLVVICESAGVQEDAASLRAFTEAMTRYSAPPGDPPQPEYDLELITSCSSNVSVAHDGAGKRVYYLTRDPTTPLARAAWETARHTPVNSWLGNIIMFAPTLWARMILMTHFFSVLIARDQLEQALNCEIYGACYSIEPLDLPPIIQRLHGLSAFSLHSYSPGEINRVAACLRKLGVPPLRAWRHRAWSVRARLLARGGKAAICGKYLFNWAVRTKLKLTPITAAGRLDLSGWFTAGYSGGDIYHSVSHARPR

Row | Structure (SMILES) | IC50 [1] [nM] | IC50 [2] [nM] | EC50 [3] [nM] | EC50 [4] [nM] | EC50 ([4]; replicon 1b-Con1, luciferase, three days) [nM]
1 | COc1c(C=C(F)c2ccc(NS(C)(=O)=O)cc2)cc(N2CCC(=O)NC2=O)cc1C(C)(C)C (racemic) [IA-L1-1.21, N-(4-(2-(3-tert-butyl-5-(2,4-dioxotetrahydropyrimidin-1(2H)-yl)-2-methoxyphenyl) 1-fluorovinyl)phenyl)methanesulfonamide] | 10 to 100 | 10 to 100 | < 10 | < 10 | –
2 | COc1c(/C=C(\Cl)c2ccc(NS(C)(=O)=O)cc2)cc(N2CCC(=O)NC2=O)cc1C(C)(C)C [IA-L1-1.3, (Z)-N-(4-(2-(3-tert-butyl-5-(2,4-dioxotetrahydropyrimidin-1(2H)-yl)-2-methoxyphenyl)-1-chlorovinyl)phenyl)methanesulfonamide] | < 10 | < 10 | 10 to 100 | < 10 | –
3 | COc1c(/C=C(\F)c2ccc(NS(C)(=O)=O)cc2)cc(N2CCC(=O)NC2=O)cc1C(C)(C)C [IA-L1-1.4, (Z)-N-(4-(2-(3-tert-butyl-5-(2,4-dioxotetrahydropyrimidin-1(2H)-yl)-2-methoxyphenyl)-1-fluorovinyl)phenyl)methanesulfonamide] | < 10 | < 10 | < 10 | < 10 | –
4 | COc1c(/C=C(/F)c2ccc(NS(C)(=O)=O)cc2)cc(N2CCC(=O)NC2=O)cc1C(C)(C)C [IA-L1-1.5, (E)-N-(4-(2-(3-tert-butyl-5-(2,4-dioxotetrahydropyrimidin-1(2H)-yl)-2-methoxyphenyl)-1-fluorovinyl)phenyl)methanesulfonamide] | < 10 | 10 to 100 | 10 to 100 | < 10 | –
5 | COc1c(/C=C(\C)c2ccc(NS(C)(=O)=O)cc2)cc(N2CCC(=O)NC2=O)cc1C(C)(C)C [IA-L1-1.6, (E)-N-(4-(1-(3-tert-butyl-5-(2,4-dioxotetrahydropyrimidin-1(2H)-yl)-2-methoxyphenyl)prop-1-en-2-yl)phenyl)methanesulfonamide] | < 10 | 10 to 100 | 10 to 100 | 10 to 100 | –
6 | COc1c(/C=C/c2ccc(NS(C)(=O)=O)cc2)cc(N2CCC(=O)NC2=O)cc1C(C)(C)C [IA-L1-1.9, (E)-N-(4-(3-tert-butyl-5-(2,4-dioxotetrahydropyrimidin-1(2H)-yl)-2-methoxystyryl)phenyl)methanesulfonamide] | < 10 | 10 to 100 | 10 to 100 | < 10 | –
7 | COc1c(/C=C/c2ccc(N(C(C)=O)S(C)(=O)=O)cc2)cc(N2CCC(=O)NC2=O)cc1C(C)(C)C [IA-L1-1.11, (E)-N-(4-(3-tert-butyl-5-(2,4-dioxotetrahydropyrimidin-1(2H)-yl)-2-methoxystyryl)phenyl)-N-(methylsulfonyl)acetamide] | 10 to 100 | 10 to 100 | < 10 | < 10 | –
8 | COc1c(/C=C/c2ccc(F)cc2)cc(N2CCC(=O)NC2=O)cc1C(C)(C)C [IA-L1-1.12, (E)-1-(3-tert-butyl-5-(4-fluorostyryl)-4-methoxyphenyl) dihydropyrimidine-2,4(1H,3H)-dione] | 100 to 1000 | 100 to 1000 | 100 to 1000 | 100 to 1000 | –
9 | COc1c(/C=C/c2ccc(N)cc2)cc(N2CCC(=O)NC2=O)cc1C(C)(C)C [IA-L1-1.13, (E)-1-(3-(4-aminostyryl)-5-tert-butyl-4-methoxyphenyl)dihydropyrimidine-2,4(1H,3H)-dione] | 100 to 1000 | 100 to 1000 | > 1000 | 100 to 1000 | –
10 | COc1ccc(/C=C/c2cc(N3CCC(=O)NC3=O)cc(C(C)(C)C)c2OC)cc1 [IA-L1-1.14, (E)-1-(3-tert-butyl-4-methoxy-5-(4-methoxystyryl)phenyl)dihydropyrimidine-2,4(1H,3H)-dione] | > 1000 | > 1000 | > 1000 | > 1000 | –
11 | CC(C)(C)c1cc(/C=C/c2ccc(NS(C)(=O)=O)cc2)cc(N2CCC(=O)NC2=O)c1 [IA-L1-1.16, (E)-N-(4-(3-tert-butyl-5-(2,4-dioxotetrahydropyrimidin-1(2H)-yl)styryl)phenyl)methanesulfonamide] | < 10 | < 10 | 10 to 100 | 10 to 100 | –
12 | CO/C(=C\c1cc(N2CCC(=O)NC2=O)cc(C(C)(C)C)c1OC)c1ccc(NS(C)(=O)=O)cc1 [IA-L1-1.17, (Z)-N-(4-(2-(3-tert-butyl-5-(2,4-dioxotetrahydropyrimidin-1(2H)-yl)-2-methoxyphenyl)-1-methoxyvinyl)phenyl)methanesulfonamide] | 10 to 100 | 10 to 100 | 10 to 100 | 10 to 100 | –
13 | COc1c(/C=C/c2ccccc2)cc(N2CCC(=O)NC2=O)cc1C(C)(C)C [IA-L1-1.18, (E)-1-(3-tert-butyl-4-methoxy-5-styrylphenyl)dihydro-pyrimidine-2,4(1H,3H)-dione] | 100 to 1000 | 100 to 1000 | 100 to 1000 | 100 to 1000 | –
14 | COc1c(/C=C\c2ccc(NS(C)(=O)=O)cc2)cc(N2CCC(=O)NC2=O)cc1C(C)(C)C [IA-L1-1.20, (Z)-N-(4-(3-tert-butyl-5-(2,4-dioxotetrahydropyrimidin-1(2H)-yl)-2-methoxystyryl)phenyl)methanesulfonamide] | – | – | 10 to 100 | 10 to 100 | –
15 | COc1c(/C=C/c2ccc([N+](=O)[O-])cc2)cc(N2CCC(=O)NC2=O)cc1C(C)(C)C [IA-L1-1.22, (E)-1-(3-tert-butyl-4-methoxy-5-(4-nitrostyryl)phenyl)dihydropyrimidine-2,4(1H,3H)-dione] | 100 to 1000 | 100 to 1000 | > 1000 | 100 to 1000 | –
16 | COc1c(/C=C(\Cl)c2ccc([N+](=O)[O-])cc2)cc(N2CCC(=O)NC2=O)cc1C(C)(C)C [IA-L1-1.23, 1-{3-tert-butyl-5-[(Z)-2-chloro-2-(4-nitro-phenyl)-vinyl]-4-methoxy-phenyl}-dihydropyrimidine-2,4-dione] | 100 to 1000 | 100 to 1000 | > 1000 | > 1000 | –
17 | COc1c(/C=C(\C)c2ccc([N+](=O)[O-])cc2)cc(N2CCC(=O)NC2=O)cc1C(C)(C)C [IA-L1-1.24, 1-{3-tert-butyl-4-methoxy-5-[(E)-2-(4-nitro-phenyl)-propenyl]-phenyl}-dihydro-pyrimidine-2,4-dione] | > 1000 | > 1000 | > 1000 | > 1000 | –
18 | CC(C)(C)c1cc(/C=C/c2ccc([N+](=O)[O-])cc2)cc(N2CCC(=O)NC2=O)c1 [IA-L1-1.25, 1-{3-tert-Butyl-5-[(E)-2-(4-nitro-phenyl)-vinyl]-phenyl}-dihydro-pyrimidine-2,4-dione] | > 1000 | > 1000 | – | – | –
19 | COc1c(/C=C/c2ccc(NS(C)(=O)=O)c(F)c2)cc(N2CCC(=O)NC2=O)cc1C(C)(C)C [IA-L1-1.26, (E)-N-(4-(3-tert-butyl-5-(2,4-dioxotetrahydropyrimidin-1(2H)-yl)-2-methoxystyryl)-2-fluorophenyl)methanesulfonamide] | 10 to 100 | 10 to 100 | 10 to 100 | 10 to 100 | –
20 | COc1c(/C=C/c2ccc(NS(C)(=O)=O)cc2)cc(-n2cc(F)c(=O)[nH]c2=O)cc1C(C)(C)C [IB-L1-1.2, (E)-N-(4-(3-tert-butyl-5-(5-fluoro-2,4-dioxo-3,4-dihydropyrimidin-1(2H)-yl)-2-methoxystyryl)phenyl)methanesulfonamide] | 10 to 100 | 10 to 100 | – | – | 10 to 100
21 | COc1c(/C=C/c2ccc(NS(C)(=O)=O)cc2)cc(-n2ccc(=O)[nH]c2=O)cc1-c1cccnc1 [IB-L1-1.53, (E)-N-(4-(5-(2,4-dioxo-3,4-dihydropyrimidin-1(2H)-yl)-2-methoxy-3-(pyridin-3-yl)styryl)phenyl)methanesulfonamide] | > 1000 | > 1000 | – | – | –
22 | COc1c(/C=C/c2ccc(NS(C)(=O)=O)cc2)cc(-n2ccc(=O)[nH]c2=O)cc1-c1ccncc1 [IB-L1-1.55, (E)-N-(4-(5-(2,4-dioxo-3,4-dihydropyrimidin-1(2H)-yl)-2-methoxy-3-(pyridin-4-yl)styryl)phenyl)methanesulfonamide] | > 1000 | > 1000 | – | – | –
